Results as given in article PMC3674157 (European journal of medicinal chemistry, 2013).

Key:
Type in all cases: cell-based
[1] = tested on: HeLa human cervical carcinoma cells; experiment: High-content analysis of mitotic arrest in HeLa cells; details: for mitotic arrest phenotype (immunostaining of α-tubulin, phosphohistone H3, Hoechst 33342): 1a 62 nM, 2c 940 nM, 3a 470 nM; for MDEC Nuclear condensation / MDEC Tubulin intensity: HCS assay, minimum detectable effective concentration
[2] = tested on: MDA-MB-231 human breast cancer cells; experiment: Wound healing; details: three different concentrations
[3] = tested on: REH human acute lymphoblastic leukemia cells; experiment: REH cytotoxicity, MTT assay; details: REH and JURKAT versus NIH3T3, HUVEC

COc1cc2c(c(OC)c1OC)-c1ccc(OC)c(=O)cc1[C@@H](NC(C)=O)CC2 [Compound 1a, colchicine, reference compound]
mitotic arrest phenotype (immunostaining of α-tubulin, phosphohistone H3, Hoechst 33342) [1]: tubulin disorganization, increased number of phosphohistone H3-positive cells, chromatin condensation, and nuclear fragmentation
MDEC Nuclear condensation [1]: 12.0 ± 4.8 nM
MDEC Tubulin intensity [1]: 10.2 ± 3.8 nM
cell migration in the scratch wound assay [2]: significantly inhibited cell migration

O=C(/C=C/c1ccccc1)c1ccccc1 [Compound 2a, 1,3-diphenylprop-2-en-1-one]
MDEC Nuclear condensation [1]: >50,000 nM
MDEC Tubulin intensity [1]: >50,000 nM

COc1cc(C(=O)/C=C/c2ccc3ccccc3c2)ccc1O [Compound 2b, (2e)-3-(2-naphthyl)-1-(3'-methoxy-4'-hydroxy-phenyl)-2-propen-1-one]
MDEC Nuclear condensation [1]: 2,200 ± 700 nM
MDEC Tubulin intensity [1]: 1,100 ± 200 nM

COc1cc(C(=O)/C=C/c2ccc3ccccc3c2)cc(OC)c1OC [Compound 2c, (2E)-1-(3’,4’,5’-trimethoxyphenyl)-3-(2-naphthyl)-2-propen-1-one]
selectivity, nontransformed cells (NIH3T3, HUVEC, PBMC) compared with the two human tumor cell lines [3]: 45 – 100 fold
mitotic arrest phenotype (immunostaining of α-tubulin, phosphohistone H3, Hoechst 33342) [1]: tubulin disorganization, increased number of phosphohistone H3-positive cells, chromatin condensation, and nuclear fragmentation
MDEC Nuclear condensation [1]: 317 ± 23 nM
MDEC Tubulin intensity [1]: 283 ± 52 nM
cell migration in the scratch wound assay [2]: significantly inhibited cell migration

COc1ccc(/C=C/C(=O)c2ccc3c(c2)OCO3)c(OC)c1OC [Compound 2d, (2E)-1-(1’,3’-benzodioxol-5-yl)-3-(2,3,4-trimethoxyphenyl)-2-propen-1-one]
MDEC Nuclear condensation [1]: >50,000 nM
MDEC Tubulin intensity [1]: >50,000 nM

COc1cc(C(=O)/C=C/c2ccc(N(C)C)cc2)cc(OC)c1OC [Compound 3a, (2E,Z)-1-(3’,4’,5’-trimethoxyphenyl)-3-(4-dimethylaminophenyl)-2-propen-1-one]
selectivity, nontransformed cells (NIH3T3, HUVEC, PBMC) compared with the two human tumor cell lines [3]: 45 – 100 fold
mitotic arrest phenotype (immunostaining of α-tubulin, phosphohistone H3, Hoechst 33342) [1]: tubulin disorganization, increased number of phosphohistone H3-positive cells, chromatin condensation, and nuclear fragmentation
MDEC Nuclear condensation [1]: 217 ± 67 nM
MDEC Tubulin intensity [1]: 139 ± 13 nM
cell migration in the scratch wound assay [2]: significantly inhibited cell migration
